Laboratory results reported in ChEMBL document CHEMBL1148473, “Sabadinine: a potential non-peptide anti-severe acute-respiratory-syndrome agent identified using structure-aided design” (J Med Chem, 2004).
The source made the active and inactive calls. The rule behind the calls is not given here.

How the values were obtained:
[1] = species: Homo sapiens; experiment: Compound was tested for inhibition of a proteinase 3CL pro of human coronavirus; Inhibited
[2] = tested on: Coronaviridae; experiment: Evaluated for effect on murine coronavirus replication; No effect; assay type: functional, organism-based
[3] = tested on: Murine hepatitis virus strain A59; experiment: Evaluated for cellular toxicity against mouse hepatitis virus strain A59 up to 100 uM, Not toxic; assay type: functional, organism-based

With `CC1CCC2N(C1)CC1[C@](O)(C(O)C[C@@]3(O)C4CCC5C6(O)OC4(C[C@@]13O)C5(C)CCC6O)[C@]2(C)O` (stereo partly drawn) the Activity [1] was “Inhibited”, the Activity [2] was “inactive” and the Activity [3] was “Not toxic”.
